# From patent US20200325178A1, “PEPTIDE NUCLEIC ACID MOLECULES FOR TREATMENT OF GRAM POSITIVE BACTERIAL INFECTION” (priority 2017, published 2020)
# Assays:
# [1] = system: S. aureus MRSA strains; experiment: Bioscreen-C dose response growth curve of MRSA over 24 hours; format: cell-based, Staphylococcus aureus; conditions: HCl salts, doses from 100 μg downwards, 10 mM sodium bicarbonate buffer pH-7.4, OD 420-580 nm
# Method: Bioscreen-C instrument was used to detect the MIC and MBC of PNA-CPP derivatives against S. aureus MRSA strains. Different concentration of PNA-CPP derivatives were prepared in 10 mM of sodium bicarbonate buffer pH-7.4 and added to ˜5.0 Log 10 CFUs in a Honey comb Bioscreen-C plate.
# Compound I-V were assayed against MRSA. FIG. 6-10 show a dose response growth curve of MRSA in presence of increasing concentrations of Compound I-HCl (FIG. 6), Compound II-HCl (FIG. 7), Compound III-HCl (FIG. 8), Compound IV-HCl (FIG. 9), and Compound V-HCl (FIG. 10), determined in a Bioscreen-C spectrophotometer.
# [2] = system: MSSA clinical isolates and ATCC strains; experiment: MIC and MBC against MSSA clinical isolates and ATCC strains; format: cell-based, Staphylococcus aureus; set-up: MIC: unit not given here
# Method: Bioscreen-C instrument was used to detect the MIC and MBC of PNA-CPP derivatives against S. aureus MSSA strains. Different concentrations of PNA-CPP derivatives were prepared in 10 mM of sodium bicarbonate buffer pH-7.4 and added to ˜5.0 Log 10 CFUs in a Honey comb Bioscreen-C plate.
# After the growth curve assays, the number of colony forming units (CFU) were counted to determine the MIC and MBC of each PNA-CPP derivative against MSSA.
# Minimum inhibitory concentration (MIC) analyses were performed as described in Clinical and Laboratory Standards Institute, Methods for Dilution Antimicrobial Susceptibility Tests for Bacteria that Grow Aerobically, 7th ed.; Approved Standard M7-A7; CLSI: Wayne, Pa., USA, 2006; volume 26, No. 2. Vancomycin and Oxacillin were used as controls. MIC was determined as the lowest concentration of agent that inhibits bacterial growth detected at A420-580 nm.
# [3] = system: MSSA; experiment: In vitro assay of emergence of resistance, MSSA, 8 days; format: cell-based, S. aureus; conditions: 6.25 μg (twice MBC) in one ml Mueller Hinton broth, 37° C., through Day 8
# Method: To determine the development of resistance in MRSA and MSSA strains against Compound I-HCl and Compound IV-HCl, an in vitro assay was performed. Twice the amount of MBC of Compound I-HCl (6.25 μg) and Compound IV-HCl (6.25 μg) were mixed with ˜5.0 log 10 CFUs in one ml of Mueller Hinton broth and incubated for 8 days at 37° C. Eight tubes of culture were used for each drug and bacterial strains. At 24 hours of interval, culture tubes were centrifuged and spent media were replaced with fresh media in presence of Compound I-HCl and Compound IV-HCl and further incubated to observe the growth of S. aureus strains. At 24 hours interval, one set of culture tube exposed to drugs were selected and a fraction of the culture used to plate on agar plates to observe the reduction of CFU counts as compared to untreated control. The rest of the culture samples were allowed to grow without any drug for additional 24 hours to observe the growth of S. aureus strains. One set of culture tubes without drug was used as the positive control.
# The assays above were also performed using MSSA strains and Compounds I and IV.
# [4] = MSSA table, isolate MRSA#16 [sic]
# [5] = MSSA table, isolate MRSA#25 [sic]
# [6] = MSSA table, isolate MRSA#27 [sic]
# [7] = MSSA table, isolate MRSA#34 [sic]
# [8] = MSSA table, isolate MRSA#38 [sic]
# [9] = MSSA table, isolate MRSA#57 [sic]
# [10] = MSSA table, isolate MRSA#60 [sic]
# [11] = MSSA table, isolate printed MRSA#49
# [12] = MSSA table, isolate printed MRSA#61
substance,measurement,setting,value
"Compound I: PNA-CPP conjugate: PNA cgt cat acg cgg tcc (SEQ ID NO: 51), AEEA linker, CPP BXRXRRXRRXRRXR; FIG. 1 (CGTCATACGCGGTCC; all peptide nucleic acid (PNA); cell-penetrating peptide attached via AEEA linker, further chemistry not fully specified)",lowest dose at which no MRSA growth was observed (growth curve),[1],3.13 µg
same,MBC,[2]; [4],1.56/1.56 ∞g
same,MIC,[2]; [4],1.56/1.56 ∞g
same,MBC,[2]; [5],3.25 ∞g
same,MIC,[2]; [5],1.56 ∞g
same,MBC,[2]; [6],1.56 ∞g
same,MIC,[2]; [6],0.78 ∞g
same,MBC,[2]; [7],3.25/3.25 ∞g
same,MIC,[2]; [7],3.25/3.25 ∞g
same,MBC,[2]; [8],1.56/1.56 ∞g
same,MIC,[2]; [8],1.56/1.56 ∞g
same,MBC,"[2]; MSSA table, isolate MRSA#55",3.25 ∞g
same,MIC,"[2]; MSSA table, isolate MRSA#55",1.56 ∞g
same,MBC,[2]; [9],3.25 ∞g
same,MIC,[2]; [9],1.56 ∞g
same,MBC,[2]; [10],1.56 ∞g
same,MIC,[2]; [10],0.78 ∞g
same,MBC,[2]; [11],3.25 ∞g
same,MIC,[2]; [11],1.56 ∞g
same,MBC,[2]; [12],3.25/3.25 ∞g
same,MIC,[2]; [12],3.25/3.25 ∞g
same,MBC,[2]; strain BAA 1721,3.25 ∞g
same,MIC,[2]; strain BAA 1721,1.56 ∞g
same,MSSA CFU counts and emergence of resistant strains,[3],reduced MSSA CFUs without emergence of resistant strains
